This is an account of results in ChEMBL document CHEMBL3758094, “Thioxocoumarins Show an Alternative Carbonic Anhydrase Inhibition Mechanism Compared to Coumarins” (J Med Chem, 2016).

The target in experiment [1] is Carbonic anhydrase 1 (Homo sapiens, UniProt P00915). The experiment can be described thus: Inhibition of human carbonic anhydrase 1 by Stopped-Flow CO2 Hydrase assay.
In experiment [2] the target is Carbonic anhydrase 2 (Homo sapiens, UniProt P00918). Briefly: Inhibition of human carbonic anhydrase 2 by Stopped-Flow CO2 Hydrase assay.
Experiment [3] deals with Carbonic anhydrase 9 (Homo sapiens, UniProt Q16790).
The target in experiment [4] is Carbonic anhydrase 12 (Homo sapiens, UniProt O43570).
Sequence of Carbonic anhydrase 12 (O43570 whole entry): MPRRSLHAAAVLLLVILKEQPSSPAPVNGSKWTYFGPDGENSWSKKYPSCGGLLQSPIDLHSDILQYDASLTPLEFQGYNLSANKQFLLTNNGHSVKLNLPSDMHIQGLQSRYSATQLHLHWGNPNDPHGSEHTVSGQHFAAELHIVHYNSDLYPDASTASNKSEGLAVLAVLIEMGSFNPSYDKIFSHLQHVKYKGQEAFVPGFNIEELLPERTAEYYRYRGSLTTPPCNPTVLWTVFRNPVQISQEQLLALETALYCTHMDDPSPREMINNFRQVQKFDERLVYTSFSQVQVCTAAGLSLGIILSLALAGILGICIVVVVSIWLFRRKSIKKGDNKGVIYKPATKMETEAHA

Sequence of Carbonic anhydrase 1 (P00915 whole entry): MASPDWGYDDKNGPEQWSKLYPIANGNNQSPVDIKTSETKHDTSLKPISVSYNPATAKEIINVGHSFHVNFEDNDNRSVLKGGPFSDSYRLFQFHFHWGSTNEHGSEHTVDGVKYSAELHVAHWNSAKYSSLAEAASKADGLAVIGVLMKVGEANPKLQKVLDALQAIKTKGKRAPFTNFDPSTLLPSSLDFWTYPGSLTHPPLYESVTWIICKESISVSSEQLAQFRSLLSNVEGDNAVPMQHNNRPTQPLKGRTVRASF

The term Ki denotes the equilibrium dissociation constant of an inhibitor or competing ligand from its target. Higher therefore signals weaker binding. Take `C#CCCCOc1ccc2ccc(=S)oc2c1`: the Ki in experiment [1] was greater than 200 µM; in experiment [2], greater than 100 µM; in experiment [3] it was 0.22 µM. Turning to `CC(C)(C)[Si](C)(C)Oc1ccc2oc(=O)ccc2c1`, in experiment [2], the Ki is greater than 100 µM.

As for `CC(C)(C)[Si](C)(C)Oc1ccc2ccc(=S)oc2c1`, in experiment [2], the Ki was greater than 100 µM. Same read-out and setting: the same measure for `CC(C)(C)[Si](C)(C)Oc1ccc2oc(=S)ccc2c1`: greater than 100 µM.

In turn, `C=CCOc1ccc2ccc(=O)oc2c1` [7-ALLYLOXYCOUMARIN] registered a Ki in experiment [2] greater than 100 µM. As to `S=c1ccc2ccc(OCc3cn(-c4ccccc4)nn3)cc2o1`, the Ki is greater than 200 µM in experiment [1], greater than 100 µM in experiment [2] and 0.004 µM in experiment [3].

Regarding `O=c1cc(O)c2ccccc2o1` [4-HYDROXYCOUMARINS], the Ki is 95 µM in experiment [1], greater than 100 µM in experiment [2], 0.41 µM in experiment [3] and 6.3 µM in experiment [4]. The molecule `C=CCOc1ccc2ccc(=S)oc2c1` came in with a Ki in experiment [2] greater than 100 µM.

For the molecule `C=CCOc1ccc2oc(=S)ccc2c1`, the Ki in experiment [2] was greater than 100 µM. For the molecule `S=c1ccc2ccccc2o1`, the values for the Ki in experiment [1], in experiment [2] and in experiment [3] were greater than 100 µM, greater than 100 µM and 6.7 µM, respectively.

`O=c1ccc2ccccc2s1`: the Ki in experiment [1] and in experiment [2] was greater than 100 µM throughout.

For the molecule `S=c1ccc2ccccc2s1`, the Ki in experiment [1] and in experiment [2] was greater than 100 µM each time. Molecule `C=CCOc1cc(=S)oc2ccccc12` displayed an inhibition constant (Ki) in experiment [2] greater than 100 µM. In the case of `O=c1ccc2cc(O)ccc2o1` [6-HYDROXYCOUMARIN], the Ki was greater than 100 µM in experiment [1], greater than 100 µM in experiment [2], 0.19 µM in experiment [3] and 0.68 µM in experiment [4]. As for `C#CCOc1ccc2ccc(=S)oc2c1`, the Ki in experiment [1] was 950 µM; in experiment [2], greater than 100 µM; in experiment [3], 41.6 µM. As for `Oc1ccc2oc(=S)ccc2c1`, in experiment [2], the Ki stood at 285 µM. The same measure, in the same setting: under `C=CCOc1cc(=O)oc2ccccc12` stands greater than 100 µM; under `CC(C)(C)[Si](C)(C)Oc1ccc2ccc(=O)oc2c1`, greater than 100 µM. As to `O=c1ccc2ccc(OCc3cn(-c4ccccc4)nn3)cc2o1`, the Ki in experiment [1] is greater than 200 µM; in experiment [2] it was greater than 100 µM; in experiment [3], 0.008 µM.

On to `C=CCOc1ccc2oc(=O)ccc2c1`, for which the inhibitory constant (Ki) in experiment [2] is greater than 100 µM. `Oc1ccc2ccc(=S)oc2c1` returned an inhibition constant (Ki) in experiment [2] greater than 100 µM.

`C#CCOc1ccc2ccc(=O)oc2c1`: the results for the inhibitory constant (Ki) in experiment [1] and in experiment [2] were 72 µM and greater than 100 µM, respectively. Take `C#CCCCOc1ccc2ccc(=O)oc2c1`: the Ki in experiment [1] was 124 µM; in experiment [2] it was greater than 100 µM; in experiment [3], 0.83 µM; in experiment [4] it was 0.37 µM.
